Data on 18 compounds can be found in US20250215029A1 (Recludix Pharma, Inc., priority 2022, published 2025).

The structures appear in SMILES notation.

For the test, the target named is T1, pY705-STAT3 in PBMC (Homo sapiens, UniProt P40763).
T1 construct: Cryopreserved Peripheral Blood Mononuclear Cells (PBMC) are from AllCells; host or cells: cryopreserved PBMC
T1 sequence (P40763 whole entry): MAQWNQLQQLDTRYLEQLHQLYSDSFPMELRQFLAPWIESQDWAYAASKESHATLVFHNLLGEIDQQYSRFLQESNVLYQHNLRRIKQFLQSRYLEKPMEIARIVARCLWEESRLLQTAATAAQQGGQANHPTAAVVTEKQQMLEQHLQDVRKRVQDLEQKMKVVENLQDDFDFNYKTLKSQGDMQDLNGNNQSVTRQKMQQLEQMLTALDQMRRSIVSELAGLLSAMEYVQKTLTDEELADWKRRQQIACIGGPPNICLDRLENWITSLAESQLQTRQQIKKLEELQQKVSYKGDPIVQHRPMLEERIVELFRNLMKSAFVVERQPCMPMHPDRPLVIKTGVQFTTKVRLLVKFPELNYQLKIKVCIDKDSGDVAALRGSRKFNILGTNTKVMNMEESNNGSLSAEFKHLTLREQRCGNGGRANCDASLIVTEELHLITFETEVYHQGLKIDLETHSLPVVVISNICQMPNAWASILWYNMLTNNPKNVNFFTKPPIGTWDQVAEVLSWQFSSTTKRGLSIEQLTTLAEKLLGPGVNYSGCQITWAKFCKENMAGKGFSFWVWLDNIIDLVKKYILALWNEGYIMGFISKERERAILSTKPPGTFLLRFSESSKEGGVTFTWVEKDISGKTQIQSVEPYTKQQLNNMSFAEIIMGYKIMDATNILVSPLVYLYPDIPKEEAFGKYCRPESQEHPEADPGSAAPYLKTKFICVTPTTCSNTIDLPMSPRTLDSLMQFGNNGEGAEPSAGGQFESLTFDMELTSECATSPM
In words: MSD-pSTAT-PBMC Assay (pSTAT3, IL-6 stimulated). The format is cell-based. The note with it: PBMC, compound 3 hrs, then 10 ng/mL IL-6 for 10 min; Table 115; read-out: STAT3. In short, it runs like this:
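pY705-STAT3 was detected electrochemiluminescently on total-STAT3 capture plates, using lysates of human PBMCs given compound for 3 h and then IL-6 (10 ng/mL, 10 min). Values were background-subtracted against unstimulated wells and set relative to DMSO. IC50 was fitted with variable slope.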
Regarding `CCCOC(=O)[C@H](C)NP(=O)(Cc1ccc2sc(C(=O)N[C@H]3CCC[C@H]4CC[C@@H](C(=O)N[C@H]5CN(C(C)=O)C[C@@H]5F)N4C3=O)cc2c1)Oc1ccccc1` (stereo partly drawn) [Compound 308, propyl (((2-(((3S,6S,9aS)-3-(((3S,4S)-1-acetyl-4-fluoropyrrolidin-3-yl)carbamoyl)-5-oxooctahydro-1H-pyrrolo[1,2-a]azepin-6-yl)carbamoyl)benzo [b]thiophen-5-yl)methyl)(phenoxy)phosphoryl)-L-alaninate], the IC50 is more than 3000 nM.
The figure for `CCCOC(=O)[C@H](C)NP(=O)(Cc1ccc2sc(C(=O)N[C@H]3CCC[C@H]4CC[C@@H](C(=O)N[C@H]5CN(C(C)=O)C[C@H]5F)N4C3=O)cc2c1)Oc1ccccc1` (stereo partly drawn) [Compound 309, propyl (((2-(((3S,6S,9aS)-3-(((3S,4R)-1-acetyl-4-fluoropyrrolidin-3-yl)carbamoyl)-5-oxooctahydro-1H-pyrrolo[1,2-a]azepin-6-yl)carbamoyl)benzo [b]thiophen-5-yl)methyl)(phenoxy)phosphoryl)-L-alaninate] is more than 3000 nM; for `CCCOC(=O)[C@@H]1CCCN1P(=O)(Cc1ccc2sc(C(=O)N[C@H]3CCC[C@H]4CC[C@@H](C(=O)N5CC(c6cccnc6)C5)N4C3=O)cc2c1)N1CCC[C@H]1C(=O)OCCC` [Compound 310, dipropyl (((2-(((3S,6S,9aS)-5-oxo-3-(3-(pyridin-3-yl)azetidine-1-carbonyl)octahydro-1H-pyrrolo[1,2-a]azepin-6-yl)carbamoyl)benzo [b]thiophen-5-yl)methyl)phosphoryl) (S)-di-L-prolinate] it is 100 to 1000 nM; for `CCCOC(=O)CC(C)NP(=O)(Cc1ccc2sc(C(=O)N[C@H]3CCC[C@H]4CC[C@@H](C(=O)N5CC(c6cccnc6)C5)N4C3=O)cc2c1)Oc1ccccc1` (stereo partly drawn) [Compound 311, propyl 3-((((2-(((3S,6S,9aS)-5-oxo-3-(3-(pyridin-3-yl)azetidine-1-carbonyl)octahydro-1H-pyrrolo[1,2-a]azepin-6-yl)carbamoyl)benzo [b]thiophen-5-yl)methyl)(phenoxy)phosphoryl)amino) butanoate] it is more than 3000 nM.
The value for `CCCOC(=O)[C@H](C)NP(=O)(Oc1ccccc1)C(C)(F)c1ccc2sc(C(=O)N[C@H]3CCC[C@H]4CC[C@@H](C(=O)N5CC(c6cccnc6)C5)N4C3=O)cc2c1` (stereo partly drawn) [Compound 313, propyl ((1-fluoro-1-(2-(((3S,6S,9aS)-5-oxo-3-(3-(pyridin-3-yl)azetidine-1-carbonyl)octahydro-1H-pyrrolo[1,2-a]azepin-6-yl)carbamoyl)benzo [b]thiophen-5-yl)ethyl)(phenoxy)phosphoryl)-L-alaninate] was 1000 to 3000 nM; that for `CCCCOC(=O)[C@@H]1CC(F)(F)CN1P(=O)(Oc1ccccc1)C(F)(F)c1ccc2sc(C(=O)N[C@H]3CCC[C@H]4CC[C@@H](C(=O)N5CC(c6cccnc6)C5)N4C3=O)cc2c1` (stereo partly drawn) [Compound 323, butyl (2S)-1-((difluoro(2-(((3S,6S,9aS)-5-oxo-3-(3-(pyridin-3-yl)azetidine-1-carbonyl)octahydro-1H-pyrrolo[1,2-a]azepin-6-yl)carbamoyl)benzo [b]thiophen-5-yl)methyl)(phenoxy)phosphoryl)-4,4-difluoropyrrolidine-2-carboxylate] was more than 3000 nM.
For the compound `CCOC(=O)[C@H](Cc1ccccc1)NP(=O)(Cc1ccc2sc(C(=O)N[C@H]3CCC[C@H]4CC[C@@H](C(=O)N5CC(c6cccnc6)C5)N4C3=O)cc2c1)Oc1ccccc1` (stereo partly drawn) [Compound 389, ethyl (((2-(((3S,6S,9aS)-5-oxo-3-(3-(pyridin-3-yl)azetidine-1-carbonyl)octahydro-1H-pyrrolo[1,2-a]azepin-6-yl)carbamoyl)benzo [b]thiophen-5-yl)methyl)(phenoxy)phosphoryl)-L-phenylalaninate], the IC50 lay within 100 to 1000 nM.
The value for `CC(C)C[C@H](NP(=O)(Cc1ccc2sc(C(=O)N[C@H]3CCC[C@H]4CC[C@@H](C(=O)N5CC(c6cccnc6)C5)N4C3=O)cc2c1)Oc1ccccc1)C(=O)OCc1ccccc1` (stereo partly drawn) [Compound 390, benzyl (((2-(((3S,6S,9aS)-5-oxo-3-(3-(pyridin-3-yl)azetidine-1-carbonyl)octahydro-1H-pyrrolo[1,2-a]azepin-6-yl)carbamoyl)benzo [b]thiophen-5-yl)methyl)(phenoxy)phosphoryl)-L-leucinate] was 100 to 1000 nM.
As for `CC(C)OC(=O)[C@@H]1CCCN1P(=O)(Cc1ccc2sc(C(=O)N[C@H]3CCC[C@H]4CC[C@@H](C(=O)N5CC(c6cccnc6)C5)N4C3=O)cc2c1)Oc1ccccc1` (stereo partly drawn) [Compound 391, isopropyl (((2-(((3S,6S,9aS)-5-oxo-3-(3-(pyridin-3-yl)azetidine-1-carbonyl)octahydro-1H-pyrrolo[1,2-a]azepin-6-yl)carbamoyl)benzo [b]thiophen-5-yl)methyl)(phenoxy)phosphoryl)-L-prolinate], the IC50 is 1000 to 3000 nM.
The figure for `COC[C@H](NP(=O)(Cc1ccc2sc(C(=O)N[C@H]3CCC[C@H]4CC[C@@H](C(=O)N5CC(c6cccnc6)C5)N4C3=O)cc2c1)Oc1ccccc1)C(=O)OC(C)C` (stereo partly drawn) [Compound 392, isopropyl O-methyl-N-(((2-(((3S,6S,9aS)-5-oxo-3-(3-(pyridin-3-yl)azetidine-1-carbonyl)octahydro-1H-pyrrolo[1,2-a]azepin-6-yl)carbamoyl)benzo [b]thiophen-5-yl)methyl)(phenoxy)phosphoryl)-L-serinate] is 100 to 1000 nM; for `COCCOC(=O)[C@H](C)NP(=O)(Cc1ccc2sc(C(=O)N[C@H]3CCC[C@H]4CC[C@@H](C(=O)N5CC(c6cccnc6)C5)N4C3=O)cc2c1)Oc1ccccc1` (stereo partly drawn) [Compound 393, 2-methoxyethyl (((2-(((3S,6S,9aS)-5-oxo-3-(3-(pyridin-3-yl)azetidine-1-carbonyl)octahydro-1H-pyrrolo[1,2-a]azepin-6-yl)carbamoyl)benzo [b]thiophen-5-yl)methyl)(phenoxy)phosphoryl)-L-alaninate] it is 100 to 1000 nM.
Consider `C[C@H](NP(=O)(Cc1ccc2sc(C(=O)N[C@H]3CCC[C@H]4CC[C@@H](C(=O)N5CC(c6cccnc6)C5)N4C3=O)cc2c1)Oc1ccccc1)C(=O)OCc1ccccc1` (stereo partly drawn) [Compound 394, benzyl (((2-(((3S,6S,9aS)-5-oxo-3-(3-(pyridin-3-yl)azetidine-1-carbonyl)octahydro-1H-pyrrolo[1,2-a]azepin-6-yl)carbamoyl)benzo [b]thiophen-5-yl)methyl)(phenoxy)phosphoryl)-L-alaninate], for which the IC50 is less than 100 nM.
The figure for `CC(C)OC(=O)C(C)(C)NP(=O)(Cc1ccc2sc(C(=O)N[C@H]3CCC[C@H]4CC[C@@H](C(=O)N5CC(c6cccnc6)C5)N4C3=O)cc2c1)Oc1ccccc1` (stereo partly drawn) [Compound 395, isopropyl 2-methyl-2-((((2-(((3S,6S,9aS)-5-oxo-3-(3-(pyridin-3-yl)azetidine-1-carbonyl)octahydro-1H-pyrrolo[1,2-a]azepin-6-yl)carbamoyl)benzo [b]thiophen-5-yl)methyl)(phenoxy)phosphoryl)amino) propanoate] is 100 to 1000 nM; for `O=C(N[C@H]1CCC[C@H]2CC[C@@H](C(=O)N3CC(c4cccnc4)C3)N2C1=O)c1cc2cc(CP(=O)(N[C@H]3CCOC3=O)Oc3ccccc3)ccc2s1` (stereo partly drawn) [Compound 398, phenyl P-((2-(((3S,6S,9aS)-5-oxo-3-(3-(pyridin-3-yl)azetidine-1-carbonyl)octahydro-1H-pyrrolo[1,2-a]azepin-6-yl)carbamoyl)benzo [b]thiophen-5-yl)methyl)-N-((S)-2-oxotetrahydrofuran-3-yl)phosphonamidate] it is more than 3000 nM.
The value for `CC(C)OC(=O)[C@H](C)NP(=O)(Cc1ccc2sc(C(=O)N[C@H]3CCC[C@H]4CC[C@@H](C(=O)N5CC(c6cccnc6)C5)N4C3=O)cc2c1)N[C@@H](C)C(=O)OC(C)C` [Compound 399, diisopropyl 2,2′-((((2-(((3S,6S,9aS)-5-oxo-3-(3-(pyridin-3-yl)azetidine-1-carbonyl)octahydro-1H-pyrrolo[1,2-a]azepin-6-yl)carbamoyl)benzo [b]thiophen-5-yl)methyl)phosphoryl)bis(azanediyl)) (2S,2′S)-dipropionate] was 1000 to 3000 nM; that for `CCCOC(=O)[C@H](C)NP(=O)(Oc1ccccc1)C(F)(F)c1ccc2sc(C(=O)N[C@H]3CCC[C@H]4CC[C@@H](C(=O)N5CC(c6cccnc6)C5)N4C3=O)cc2c1` (stereo partly drawn) [Compound 400, propyl ((difluoro(2-(((3S,6S,9aS)-5-oxo-3-(3-(pyridin-3-yl)azetidine-1-carbonyl)octahydro-1H-pyrrolo[1,2-a]azepin-6-yl)carbamoyl)benzo [b]thiophen-5-yl)methyl)(phenoxy)phosphoryl)-L-alaninate] was 100 to 1000 nM; that for `O=C(N[C@H]1CCC[C@H]2CC[C@@H](C(=O)N3CC(c4cccnc4)C3)N2C1=O)c1cc2cc(CP(=O)(N[C@@H](CCc3ccccc3)C(=O)OCc3ccccc3)Oc3ccccc3)ccc2s1` (stereo partly drawn) [Compound 401, benzyl (2S)-2-((((2-(((3S,6S,9aS)-5-oxo-3-(3-(pyridin-3-yl)azetidine-1-carbonyl)octahydro-1H-pyrrolo[1,2-a]azepin-6-yl)carbamoyl)benzo [b]thiophen-5-yl)methyl)(phenoxy)phosphoryl)amino)-4-phenylbutanoate] was more than 3000 nM.
On to `CCCCOC(=O)[C@H](C)NP(=O)(Cc1ccc2sc(C(=O)N[C@H]3CCC[C@H]4CC[C@@H](C(=O)N5CC(c6cccnc6)C5)N4C3=O)cc2c1)N[C@@H](C)C(=O)OCCCC` [Compound 420, dibutyl 2,2′-((((2-(((3S,6S,9aS)-5-oxo-3-(3-(pyridin-3-yl)azetidine-1-carbonyl)octahydro-1H-pyrrolo[1,2-a]azepin-6-yl)carbamoyl)benzo [b]thiophen-5-yl)methyl)phosphoryl)bis(azanediyl)) (2S,2′S)-dipropionate], for which the IC50 lay in the range of 100 to 1000 nM.
